Experimental data reported in patent publication US20240175876A1, “PERIPLASMIC LIGAND TRAPPING SYSTEM” (UNIVERSITY OF MIAMI, priority 2022, published 2024).

Molecular target: T1, Angiotensin II Receptor Type I (AGTR1) (Homo sapiens, UniProt P30556)
T1 construct: expressed in transfected cells; host or cells: Saccharomyces cerevisiae strain DI DCyFIR P1 I (humanized Gαi)
T1 sequence (P30556 1-359): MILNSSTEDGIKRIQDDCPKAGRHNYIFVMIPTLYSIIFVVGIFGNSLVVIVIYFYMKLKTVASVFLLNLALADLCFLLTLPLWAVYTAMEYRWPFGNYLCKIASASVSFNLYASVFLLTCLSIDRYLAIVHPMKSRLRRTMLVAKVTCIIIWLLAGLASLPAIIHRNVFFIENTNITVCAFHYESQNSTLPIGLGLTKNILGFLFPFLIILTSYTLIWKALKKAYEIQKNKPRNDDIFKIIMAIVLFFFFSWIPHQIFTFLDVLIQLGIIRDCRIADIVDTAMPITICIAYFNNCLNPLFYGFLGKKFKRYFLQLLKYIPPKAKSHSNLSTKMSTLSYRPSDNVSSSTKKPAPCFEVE
Experiment: AGTR1 modulation via intracellular nanobodies, galactose-induced AGT-II, mTq2 reporter in yeast
Type: cell-based
Conditions: galactose-induced secreted ligand, Gαi strain; FIG. 5B

Substance: angiotensin II [AGT-II]
- AGTR1 activation by inducible expression of ligand: successfully resulted in AGTR1 activation
